Experimental data reported in PubChem BioAssay (NCI).
Where “and” joins values, the source holds several entries; their conditions need not be identical. Equal entries are not always repeated.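 A five-concentration, 48-hour dose response in 96-well plates underlies each endpoint, interpolated linearly between surrounding concentrations. At the GI50, growth is halved. TGI denotes the concentration required for complete inhibition of growth.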

Experiments:
Assay in all cases: DTP human tumour cell line panel, 48 h
[1] = system: 786-0 renal
[2] = system: A498 renal
[3] = system: CAKI-1 renal
[4] = system: HCC-2998 colon
[5] = system: MOLT-4 leukemia
[6] = system: SK-MEL-2 melanoma
[7] = system: SNB-19 CNS
[8] = system: TK-10 renal
[9] = system: UACC-62 melanoma
[10] = system: UO-31 renal

| Compound | GI50 [1] | TGI [1] | GI50 [2] | TGI [2] | GI50 [3] | TGI [3] | GI50 [4] | TGI [4] | GI50 [5] | TGI [5] | GI50 [6] | TGI [6] | GI50 [7] | TGI [7] | TGI [8] | GI50 [9] | TGI [9] | GI50 [10] [µM] | TGI [10] | GI50 [8] |
| --- | --- | --- | --- | --- | --- | --- | --- | --- | --- | --- | --- | --- | --- | --- | --- | --- | --- | --- | --- | --- |
| COc1ccc(-c2csc3c2-n2cccc2C3=O)cc1 | 0.0497 µM | > 100 µM | 0.124 µM | 1.17 µM and 3.15 µM | 0.0528 µM | > 100 µM | 0.232 µM | 2.56 µM and 5.8 µM | 0.0352 µM | > 87.7 µM | 0.0111 µM | > 79.9 µM | 0.0394 µM | > 100 µM | > 100 µM | 0.232 µM | > 100 µM | 0.049 | > 44.2 µM | – |
| CC[C@@]1(OP(=O)(O)O)C(=O)OCc2c1cc1n(c2=O)Cc2cc3ccccc3nc2-1 | 0.0367 µM | – | 0.128 µM | 0.559 µM and 0.96 µM | – | 1.04 µM | 1.57 µM | 6.06 µM and 8.45 µM | – | 0.147 µM and 0.395 µM | 1.85 µM | 7.36 µM and 5.05 µM | 0.143 µM | 39.3 µM | 88 µM | 0.0269 µM | 0.404 µM and 1.48 µM | 0.099 | 0.625 µM and 1.03 µM | 4.62 µM |
| CS(=O)(=O)OCCN(CCOS(C)(=O)=O)c1ccc(C=Nc2ccc(-c3csc(COc4ccccc4)n3)cc2)cc1 | – | 4.52 µM | – | 7.48 µM | – | 4.18 µM | – | 7.59 µM | – | 15.6 µM | – | 37.3 µM | – | 32.6 µM | 12.5 µM | – | 19.8 µM | – | 2.93 µM | – |
| C=CCc1cccc(C=O)c1O | > 100 µM | > 100 µM | – | – | > 100 µM | > 100 µM | > 100 µM | > 100 µM | 15.5 µM | 55.1 µM | > 100 µM | > 100 µM | 14.6 µM | > 100 µM | > 100 µM | 35.9 µM | > 100 µM | 70.1 | > 100 µM | > 100 µM |
| O=C(O)/C=C\C(=O)Nc1ccc2c(c1)-c1ccccc1C2 | – | > 100 µM | – | > 100 µM | – | > 100 µM | – | > 100 µM | – | – | – | > 100 µM | – | > 100 µM | > 100 µM | – | > 100 µM | – | > 100 µM | – |
| O=S1OC(c2ccccc2)(c2ccccc2)C(c2ccccc2)(c2ccccc2)O1 | – | > 100 µM | – | > 100 µM | – | – | – | > 100 µM | – | > 100 µM | – | – | – | > 100 µM | > 100 µM | – | > 100 µM | – | > 100 µM | – |
| COc1ccc(C2COc3c(ccc(OC)c3OC)C2=O)cc1OC (stereo not given) | – | > 100 µM | – | > 100 µM | – | > 100 µM | – | > 100 µM | – | > 100 µM | – | – | – | > 100 µM | > 100 µM | – | > 100 µM | – | > 100 µM | – |
| CC1=C(CCCOC(=O)[C@H](N)CC(C)C)C2=C(C)C3(CC3)[C@@](C)(O)C(=O)C2=C1 | 2.84 µM | 11.4 µM | 1.68 µM | 3.66 µM | – | – | 1.78 µM | 4.49 µM | 24.6 µM | > 100 µM | 1.91 µM | 3.89 µM | 2.88 µM | > 100 µM | 7.92 µM | 1.75 µM | 3.75 µM | 1.42 | 4.32 µM | 2.88 µM |
| COc1nc(NC2OC(COC(C)=O)C(OC(C)=O)C(OC(C)=O)C2OC(C)=O)c(N=CC=Nc2c(NC3OC(COC(C)=O)C(OC(C)=O)C(OC(C)=O)C3OC(C)=O)nc(OC)[nH]c2=O)c(=O)[nH]1 (stereo not given) | – | > 100 µM | – | > 100 µM | – | > 100 µM | – | > 100 µM | – | > 100 µM | – | – | – | > 100 µM | > 100 µM | – | > 100 µM | – | > 100 µM | – |
| CCN1CCN(CCC(=O)Nc2cccc(-n3cc(-c4ccncc4)c(-c4ccc(Cl)c(OC)c4)n3)c2)CC1 | 0.701 µM | 2.2 µM | 0.676 µM | 2.74 µM | – | – | 1.27 µM | 2.63 µM | 0.661 µM | 5.76 µM | 1.11 µM | 2.55 µM | 1.08 µM | 5.61 µM | 5 µM | 0.757 µM | 2.34 µM | 0.922 | 2.53 µM | 1.75 µM |
| CC(C)(C)CC(C)(C)c1ccc(OCCO)cc1 | 10.9 µg/mL | 33.7 µg/mL | 0.0423 µg/mL | 14.2 µg/mL | 0.678 µg/mL | 8.37 µg/mL | 7.57 µg/mL | 19.7 µg/mL | 3.41 µg/mL | > 75 µg/mL | 8.07 µg/mL | 18.7 µg/mL | 6.58 µg/mL | 19.5 µg/mL | 33 µg/mL | 3.51 µg/mL | 15.9 µg/mL | – | – | 10.6 µg/mL |
| CCOC(=O)c1noc2c1CCc1c-2cn(Cc2ccc(OC)cc2)c1-c1cc(OC)c(OC)c(OC)c1 | 3.65 µM | > 100 µM | 2.77 µM | 42 µM | – | – | 5.17 µM | > 100 µM | 2.7 µM | > 100 µM | 4.29 µM | > 100 µM | 0.668 µM | > 100 µM | > 100 µM | 2.74 µM | > 100 µM | 3.44 | > 100 µM | > 100 µM |
| O=C(CCc1n[nH]c(=S)o1)Nc1cc(Cl)ccc1Cl | – | 99.2 µM | – | > 100 µM | – | > 100 µM | – | > 100 µM | – | > 100 µM | – | – | – | > 100 µM | > 100 µM | – | > 100 µM | – | > 100 µM | – |
| CCN(CC)CC(=O)NC1c2ccccc2Oc2ccccc21 | – | > 100 µM | – | – | – | – | – | > 100 µM | – | > 100 µM | – | – | – | > 100 µM | > 100 µM | – | > 100 µM | – | > 100 µM | – |
| Cn1cc(C2NC(=O)c3ccccc3N2)c2ccccc21 (stereo not given) | – | > 100 µM | – | > 100 µM | – | > 100 µM | – | 7.45 µM | – | – | – | – | – | > 91 µM | > 100 µM | – | – | – | > 100 µM | – |
| CC(C)=CCc1cc2c(cc1O)C1=C(C(=O)C3=C(NCCS3(=O)=O)C1=O)C(C=C(C)C)O2 (stereo not given) | 9.97 µM | > 16.7 µM | > 16.7 µM | > 16.7 µM | – | – | 9.25 µM | > 16.7 µM | 3.16 µM | 12.2 µM | 4.34 µM | 15 µM | 3.81 µM | 11.9 µM | > 16.7 µM | 3.39 µM | 8.79 µM | 5.57 | > 16.7 µM | > 16.7 µM |
| O=C([CH-]C(=O)c1ccccc1)c1ccccc1.O=C([CH-]C(=O)c1ccccc1)c1ccccc1.O=C([CH-]C(=O)c1ccccc1)c1ccccc1.[Ga+3] | > 100 µM | > 100 µM | 56.8 µM | > 100 µM | 67 µM | > 100 µM | – | – | 13.3 µM | > 100 µM | 43.8 µM | > 100 µM | > 100 µM | > 100 µM | > 100 µM | 32.7 µM | > 100 µM | 30.2 | > 100 µM | > 100 µM |
